Laboratory results from publication PMC4076210, “Discovery of Novel AKT Inhibitors with Enhanced Anti-Tumor Effects in Combination with the MEK Inhibitor” (PLoS ONE, 2014).
Like-named read-outs stand apart in the source and are kept apart here.

Key:
TAO2(h) = molecular target: T1, TAO2(h) (Homo sapiens, UniProt Q9UL54); assay: Kinase panel; type: biochemical
T1 construct: purchased Millipore KinaseProfiler
T1 sequence (Q9UL54 1-1235): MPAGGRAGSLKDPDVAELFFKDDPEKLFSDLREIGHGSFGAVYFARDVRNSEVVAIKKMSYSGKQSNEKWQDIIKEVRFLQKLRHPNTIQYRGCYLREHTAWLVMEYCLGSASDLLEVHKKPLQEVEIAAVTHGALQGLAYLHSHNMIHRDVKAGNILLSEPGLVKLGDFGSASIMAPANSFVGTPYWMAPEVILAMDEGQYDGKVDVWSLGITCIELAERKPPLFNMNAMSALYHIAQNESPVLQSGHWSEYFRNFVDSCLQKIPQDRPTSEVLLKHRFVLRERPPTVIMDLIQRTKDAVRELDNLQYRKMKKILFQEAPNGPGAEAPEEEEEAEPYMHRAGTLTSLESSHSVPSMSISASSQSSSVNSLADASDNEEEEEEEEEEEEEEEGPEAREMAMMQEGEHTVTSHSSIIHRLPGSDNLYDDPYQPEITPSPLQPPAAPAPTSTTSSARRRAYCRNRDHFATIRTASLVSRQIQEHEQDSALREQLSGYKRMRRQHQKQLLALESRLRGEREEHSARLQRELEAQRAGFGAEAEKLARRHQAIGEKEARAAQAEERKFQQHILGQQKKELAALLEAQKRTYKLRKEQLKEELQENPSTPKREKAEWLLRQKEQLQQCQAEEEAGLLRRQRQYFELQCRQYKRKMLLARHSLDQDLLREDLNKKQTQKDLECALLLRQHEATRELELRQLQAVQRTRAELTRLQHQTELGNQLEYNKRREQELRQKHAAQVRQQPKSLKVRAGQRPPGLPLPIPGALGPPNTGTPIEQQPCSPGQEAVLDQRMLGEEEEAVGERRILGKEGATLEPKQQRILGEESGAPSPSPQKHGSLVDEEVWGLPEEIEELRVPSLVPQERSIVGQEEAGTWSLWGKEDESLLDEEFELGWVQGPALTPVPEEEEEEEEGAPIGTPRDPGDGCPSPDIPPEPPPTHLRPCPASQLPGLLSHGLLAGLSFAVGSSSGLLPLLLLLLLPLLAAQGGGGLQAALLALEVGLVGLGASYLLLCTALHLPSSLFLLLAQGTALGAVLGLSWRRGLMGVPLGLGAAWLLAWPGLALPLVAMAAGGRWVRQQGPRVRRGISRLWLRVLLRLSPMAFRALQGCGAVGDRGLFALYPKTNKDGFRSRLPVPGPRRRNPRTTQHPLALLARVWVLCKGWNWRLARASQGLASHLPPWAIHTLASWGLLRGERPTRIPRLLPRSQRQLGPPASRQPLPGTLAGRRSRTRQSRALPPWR

EphB4(h) = molecular target: T2, EphB4(h) (Homo sapiens, UniProt P54760); assay: Kinase panel; type: biochemical
T2 construct: purchased Millipore KinaseProfiler
T2 sequence (P54760 16-987): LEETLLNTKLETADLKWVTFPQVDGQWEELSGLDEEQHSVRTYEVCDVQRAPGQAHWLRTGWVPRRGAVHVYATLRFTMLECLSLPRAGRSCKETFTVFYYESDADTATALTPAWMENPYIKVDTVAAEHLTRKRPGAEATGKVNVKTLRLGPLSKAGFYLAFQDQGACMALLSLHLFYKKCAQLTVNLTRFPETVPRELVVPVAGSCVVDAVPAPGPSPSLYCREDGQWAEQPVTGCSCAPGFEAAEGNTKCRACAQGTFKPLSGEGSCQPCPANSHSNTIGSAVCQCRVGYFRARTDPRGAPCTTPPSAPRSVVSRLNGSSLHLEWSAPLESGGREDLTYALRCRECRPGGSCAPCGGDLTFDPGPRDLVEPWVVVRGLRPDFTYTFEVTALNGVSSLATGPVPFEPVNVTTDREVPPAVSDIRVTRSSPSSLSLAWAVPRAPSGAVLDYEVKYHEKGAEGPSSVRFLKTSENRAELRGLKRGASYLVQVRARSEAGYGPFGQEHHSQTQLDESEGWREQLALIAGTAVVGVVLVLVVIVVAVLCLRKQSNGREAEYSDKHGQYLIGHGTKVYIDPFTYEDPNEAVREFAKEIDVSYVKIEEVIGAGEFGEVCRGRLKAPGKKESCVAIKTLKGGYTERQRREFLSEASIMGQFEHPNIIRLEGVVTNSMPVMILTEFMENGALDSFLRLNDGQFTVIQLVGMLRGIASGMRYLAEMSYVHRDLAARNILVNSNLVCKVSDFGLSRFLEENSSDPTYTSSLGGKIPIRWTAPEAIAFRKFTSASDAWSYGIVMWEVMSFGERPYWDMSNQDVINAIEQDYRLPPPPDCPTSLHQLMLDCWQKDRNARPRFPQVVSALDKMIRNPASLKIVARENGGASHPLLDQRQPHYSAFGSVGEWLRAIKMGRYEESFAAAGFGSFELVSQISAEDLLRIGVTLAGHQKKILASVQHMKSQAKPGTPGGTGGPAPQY

Compound	inhibition at 0.5 µM (TAO2(h))	inhibition at 10 µM (TAO2(h))	inhibition at 0.5 µM (EphB4(h))	inhibition at 10 µM (EphB4(h))	inhibition at 0.5 µM (TAO2(h); 0.5 µM, read-out: % Inhibition)	inhibition at 10 µM (TAO2(h); 10 µM, read-out: % Inhibition)	inhibition at 0.5 µM (EphB4(h); 0.5 µM, read-out: % Inhibition)	inhibition at 10 µM (EphB4(h); 10 µM, read-out: % Inhibition)
Cn1ncc(Cl)c1-c1cc(C(=O)N[C@H](CN)Cc2cccc(F)c2)sc1Cl [GSK2110183]	-7%	12%	0%	10%				
Cn1ncc(Cl)c1-c1cc(C(=O)N[C@H](CN)Cc2ccc(F)c(F)c2)oc1Cl [GSK2141795]					-5%	-2%	5%	5%
